“And” between values parts separate entries of the source, which are not always exact repeats. Equal values may be shown once.

In the test the target is Replicase polyprotein 1ab (Severe acute respiratory syndrome coronavirus 2, UniProt P0DTD1). Kind of test: SARS-CoV-2 Mpro enzyme assay. The procedure:
The activity of SARS-Cov-2 Mpro was determined in a Fluorescence Resonance Energy Transfer (FRET)-based enzymatic assay using FRET Substrate Dabcyl-KTSAVLQSGFRKM-E(Edans)-Amide. In brief, […] of test compounds (concentrations ranging from […]) was preincubated with […] of 20 nM (final concentration) Mpro enzyme for 30 min at 30 °C in an assay buffer containing 20 mM HEPES, 120 mM NaCI, 0.4 mM EDTA, and 4 mM DTT and 20% glycerol. Reaction was initiated by addition of 10 pL of […] (final concentration) of FRET substrate (Dabcyl-KTSAVLQSGFRKM-E (Edans)-Amide). The reaction was incubated for 1 h and the resulting fluorescent intensity was measured at Ex=360 nm/Em=490 nm at 30 °C using a SPARK 20M plate reader (Tecan). Boceprevir was used a reference standard compound. pICso and pKi were determined using 4PL GraphPad Prism and data were represented as a mean n=2± SD.
As a reminder, the IC50 is the concentration that gives 50% inhibition. As for `NC(=O)C(=O)C(C[C@@H]1CCNC1=O)NC(=O)[C@H](CC1CC1)NC(=O)/C=C/c1ccc(Cl)cc1F` (stereo partly specified) [WO2022129953, Example 1], half-maximal inhibition (IC50) required 13 nM.

On to `NC(=O)C(=O)C(C[C@@H]1CCNC1=O)NC(=O)[C@H](CC1CC1)NC(=O)/C=C/c1ccccc1` (stereo partly specified) [WO2022129953, Example 2], for which it took 20 nM to reach half-maximal inhibition (IC50).

`NC(=O)C(=O)C(C[C@@H]1CCNC1=O)NC(=O)[C@H](CC1CC1)NC(=O)OCc1ccccc1` (stereo partly specified) [WO2022129953, Example 3] displayed a half-maximal inhibitory concentration (IC50) of 25 nM.

With `NC(=O)/C(=N\O)C(C[C@@H]1CCNC1=O)NC(=O)[C@H](CC1CC1)NC(=O)/C=C/c1ccccc1` (stereo partly specified) [WO2022129953, Example 4], the midpoint of inhibition, the IC50, lay at 1000 nM.

As for `CC(C)(C)NC(=O)C(=O)C(CC1CCNC1=O)NC(=O)[C@H](CC1CC1)NC(=O)/C=C/c1ccc(Cl)cc1F` (stereo partly specified) [WO2022129953, Example 5], inhibition was half-maximal at 501 nM (IC50).

On to `NC(=O)C(=O)C(CC1CC1)NC(=O)[C@H](CC1CC1)NC(=O)/C=C/c1ccccc1` (stereo partly specified) [WO2022129953, Example 6], for which half-maximal inhibition (IC50) required 5010 nM.

In the case of `NC(=O)C(=O)C(CC1CCCC1)NC(=O)[C@H](CC1CC1)NC(=O)/C=C/c1ccccc1` (stereo partly specified) [WO2022129953, Example 7], the midpoint of inhibition, the IC50, lay at 7940 nM.

Regarding `CC(C)(C)C[C@H](NC(=O)/C=C/c1ccc(Cl)cc1Cl)C(=O)NC(C[C@@H]1CCNC1=O)C(=O)C(=O)C#N` (stereo partly specified) [WO2022129953, Example 9], the IC50 was found to be 398 nM.

With `CC(C)(C)C[C@H](NC(=O)/C=C/c1ccc(Cl)cc1Cl)C(=O)NC(C[C@@H]1CCNC1=O)C(=O)C(=O)NC1CC1` (stereo partly specified) [WO2022129953, Example 10], half-maximal inhibition (IC50) was put at 6.31 nM.

As to `CC(C)(C)C[C@H](NC(=O)/C=C/c1ccc(Cl)cc1F)C(=O)NC(C[C@@H]1CCNC1=O)C(=O)C(=O)NC1CC1` (stereo partly specified) [WO2022129953, Example 11], 7.94 nM corresponded to half-maximal inhibition (IC50).

In turn, `C[C@@H](CC(=O)N[C@@H](CC(C)(C)C)C(=O)NC(C[C@@H]1CCNC1=O)C(=O)C(=O)NC1CC1)c1ccccc1` (stereo partly specified) [WO2022129953, Example 12] came in with an IC50 of 16 nM.

The compound `C[C@H](CC(=O)N[C@@H](CC(C)(C)C)C(=O)NC(C[C@@H]1CCNC1=O)C(=O)C(=O)NC1CC1)c1ccccc1` (stereo partly specified) [WO2022129953, Example 13] showed an IC50 of 16 nM.

`CC[C@@H](CC(=O)N[C@@H](CC(C)(C)C)C(=O)NC(C[C@@H]1CCNC1=O)C(=O)C(=O)NC1CC1)c1ccccc1` (stereo partly specified) [WO2022129953, Example 14]: inhibition was half-maximal at 7.9 nM (IC50).

As for `CC[C@H](CC(=O)N[C@@H](CC(C)(C)C)C(=O)NC(C[C@@H]1CCNC1=O)C(=O)C(=O)NC1CC1)c1ccccc1` (stereo partly specified) [WO2022129953, Example 15], inhibition was half-maximal at 10 nM (IC50).

Regarding `CC(C)(C)C[C@H](NC(=O)C[C@@H](c1ccccc1)C(F)(F)F)C(=O)NC(C[C@@H]1CCNC1=O)C(=O)C(=O)NC1CC1` (stereo partly specified) [WO2022129953, Example 16], the IC50 was 20 nM.

In the case of `CC(C)(C)C[C@H](NC(=O)C[C@H](c1ccccc1)C(F)(F)F)C(=O)NC(C[C@@H]1CCNC1=O)C(=O)C(=O)NC1CC1` (stereo partly specified) [WO2022129953, Example 17], the IC50 turned out to be 13 nM.

`CC(C)C[C@H](NC(=O)/C=C/c1ccc(Cl)cc1F)C(=O)NC(C[C@@H]1CCNC1=O)C(=O)C(N)=O` (stereo partly specified) [WO2022129953, Example 18] had an IC50 of 13 nM.

In turn, `CCNC(=O)C(=O)C(C[C@@H]1CCNC1=O)NC(=O)[C@H](CC1CC1)NC(=O)/C=C/c1ccc(Cl)cc1F` (stereo partly specified) [WO2022129953, Example 19] displayed an IC50 of 13 nM.

Turning to `NC(=O)C(=O)C(C[C@@H]1CCNC1=O)NC(=O)[C@H](CC1CC1)NC(=O)/C=C/c1ccc(Cl)cc1Cl` (stereo partly specified) [WO2022129953, Example 20], it took 100 nM to reach half-maximal inhibition (IC50).

For `O=C(/C=C/c1ccc(Cl)cc1F)N[C@@H](CC1CC1)C(=O)NC(C[C@@H]1CCNC1=O)C(=O)C(=O)NC1CC1` (stereo partly specified) [WO2022129953, Example 21], the IC50 is 7.94 nM and 16 nM.

`CC(C)(C)C[C@H](NC(=O)/C=C/c1ccc(Cl)cc1F)C(=O)NC(C[C@@H]1CCNC1=O)C(=O)C(N)=O` (stereo partly specified) [WO2022129953, Example 22] gave an IC50 of 6.31 nM.

Compound `CCNC(=O)C(=O)C(C[C@@H]1CCNC1=O)NC(=O)[C@H](CC(C)(C)C)NC(=O)/C=C/c1ccc(Cl)cc1F` (stereo partly specified) [WO2022129953, Example 23] showed an IC50 of 13 nM.

`CCNC(=O)C(=O)C(C[C@@H]1CCNC1=O)NC(=O)[C@H](CC1CC1)NC(=O)/C=C/c1ccc(Cl)cc1Cl` (stereo partly specified) [WO2022129953, Example 24] returned an IC50 of 13 nM.

`O=C(/C=C/c1ccc(Cl)cc1Cl)N[C@@H](CC1CC1)C(=O)NC(C[C@@H]1CCNC1=O)C(=O)C(=O)NC1CC1` (stereo partly specified) [WO2022129953, Example 25] gave an IC50 of 10 nM.

On to `CCNC(=O)C(=O)C(C[C@@H]1CCNC1=O)NC(=O)[C@H](CC(C)(C)C)NC(=O)/C=C/c1ccc(Cl)cc1Cl` (stereo partly specified) [WO2022129953, Example 26], for which the IC50 came out at 10 nM.

With `CC(C)(C)C[C@H](NC(=O)/C=C/c1ccc(Cl)cc1Cl)C(=O)NC(C[C@@H]1CCNC1=O)C(=O)C(N)=O` (stereo partly specified) [WO2022129953, Example 27], the IC50 was found to be 7.9 nM.

Take `O=C(N[C@@H](CC1CC1)C(=O)NC(C[C@@H]1CCNC1=O)C(=O)C(=O)NC1CC1)OCc1ccccc1` (stereo partly specified) [WO2022129953, Example 29]: half-maximal inhibition (IC50) required 16 nM.

Take `O=C(CCc1ccc(Cl)cc1Cl)N[C@@H](CC1CC1)C(=O)NC(C[C@@H]1CCNC1=O)C(=O)C(=O)NC1CC1` (stereo partly specified) [WO2022129953, Example 30]: the IC50 amounted to 20 nM.

As for `O=C(/C=C/c1ccc(Cl)cc1F)N[C@@H](CC1CCC1)C(=O)NC(C[C@@H]1CCNC1=O)C(=O)C(=O)NC1CC1` (stereo partly specified) [WO2022129953, Example 31], the IC50 was 25 nM.

`CC[C@@H](CC(=O)N[C@@H](CC1CC1)C(=O)NC(C[C@@H]1CCNC1=O)C(=O)C(=O)NC1CC1)c1ccccc1` (stereo partly specified) [WO2022129953, Example 32] returned an IC50 of 13 nM.

Consider `CC[C@H](CC(=O)N[C@@H](CC1CC1)C(=O)NC(C[C@@H]1CCNC1=O)C(=O)C(=O)NC1CC1)c1ccccc1` (stereo partly specified) [WO2022129953, Example 33], for which the IC50 was 25 nM.

The record behind these values is BindingDB's records for patent WO2022129953 (HEPTARES THERAPEUTICS LIMITED, 2022).
